Data on one molecule can be found in ChEMBL document CHEMBL5247651, “Oxadiazolopyridine Derivatives as Efficacious Mitochondrial Uncouplers in the Prevention of Diet-Induced Obesity” (J Med Chem, 2023).

Each structure is given as a SMILES string. In brackets after ≈: the same amount, converted by molar mass. Activity calls are given as the source filed them. The rule behind the calls is not given here.

The subject of series [1] is Mus musculus. Description: Anti-obesity activity in high-fat diet induced obesity C57BL/6 mouse model assessed as increase in locomotory activity at 130 mg/kg, po measured upto 4 hrs by indirect calorimetric analysis. Type of series: functional, organism-based.
The nature of series [2]: Observed apparent volume of distribution in C57BL/6 mouse at 10 mg/kg, po measured upto 24 hrs by LC/MS-MS analysis. Type of series: ADME, organism-based. Particulars: in vivo.
Series [3] in a line: Drug distribution in fasted C57BL/6j mouse […] white adipose tissue at 130 mg/kg, po by LC-MS/MS analysis. The conditions noted are these: in vivo. Type of series: ADME, organism-based.
Series [4] in a line: Drug distribution in fasted C57BL/6j mouse brown adipose tissue at 130 mg/kg, po by LC-MS/MS analysis. Particulars: in vivo. Type of series: ADME, organism-based.
Series [5] concerns Mus musculus. Description: Anti-obesity activity in fasted C57BL/6j mouse assessed as decrease in serum glucose level at 130 mg/kg per day, po administered measured after 2 weeks. The class given is functional, organism-based.
For the next series, the system named is L6. Description: Induction of mitochondrial respiration in rat L6 cells assessed as fold increase in basal respiration at 25 uM in presence of antimycin and rotenone. Type of series: functional, cell-based.
The test system of series [6] is Mus musculus. Description: Anti-obesity activity in high-sugar western diet induced obesity C57BL/6j mouse model assessed as reversal of fat mass gain at 130 mg/kg per day, po administered via gavage daily measured after 3 weeks. The class given is functional, organism-based.
Series [7] is described as follows: Cmax in C57BL/6 mouse at 10 mg/kg, po administered via gavage measured upto 24 hrs by LC/MS-MS analysis. The class given is ADME, organism-based. Details: dose 10 mg/kg, time < 24 hrs, route po. The conditions noted are these: in vivo.
A short description of series [8]: Cmax in C57BL/6 mouse at 1 mg/kg, iv measured upto 24 hrs by LC/MS-MS analysis. Type of series: ADME, organism-based. Details: time < 24 hrs, dose 1 mg/kg, route iv. Particulars: in vivo.
For series [9] the following is noted: mouse, in vivo, po, 10 mg/kg, 24 h.
Series [10] in a line: Solubility of compound at pH 7.4. The class given is physicochemical. Particulars: buffer.
For series [11], the system named is Mus musculus. Description: Anti-obesity activity in high-fat diet induced obesity C57BL/6 mouse model assessed as increase in carbohydrate oxidation at 130 mg/kg, po measured upto 4 hrs by indirect calorimetric analysis. The class given is functional, organism-based.
Series [12] relates to Mus musculus. Description: Anti-obesity activity in C57BL/6j mouse assessed as increase in glucose level at 130 mg/kg per day, po administered via gavage daily measured after 3 weeks by glucose tolerance test. The class given is functional, organism-based.
Series [13] concerns Mus musculus. Description: Anti-obesity activity in C57BL/6j mouse assessed as decrease in serum insulin level at 130 mg/kg per day, po administered via gavage daily measured after 3 weeks by ELISA assay. The class given is functional, organism-based.

Regarding `Oc1nc2nonc2cc1Nc1c(F)c(F)c(F)c(F)c1F`, the outcome with Mus musculus [1], in the series on L6 and in the series with Mus musculus [12] was inactive. Also, the Vz in [2] stood at 0.74 L/kg. For the same molecule, the Drug uptake entry in [3] and in series [4] was “Active” in each case. The result with Mus musculus [5], with Mus musculus [6], with Mus musculus [11] and in the series with Mus musculus [13] was Active. In addition, the Cmax (as a rule, the maximum level reached in the sampled fluid or tissue) in [7] was determined as 87 µM; in series [8], 16 µM. For the same molecule, the F in [9] worked out at 75%. In series [10], the concentration in solution (solubility) was 18.6 µM (≈ 5.92 µg/mL).
